This is an account of results in patent US20120202847A1, “Novel Tetrahydroisoquinoline Compounds” (priority 2009, published 2012).

One assay addresses T1, DGAT1 enzyme (Homo sapiens, UniProt O75907).
T1 construct: made in house
T1 sequence (O75907 1-488): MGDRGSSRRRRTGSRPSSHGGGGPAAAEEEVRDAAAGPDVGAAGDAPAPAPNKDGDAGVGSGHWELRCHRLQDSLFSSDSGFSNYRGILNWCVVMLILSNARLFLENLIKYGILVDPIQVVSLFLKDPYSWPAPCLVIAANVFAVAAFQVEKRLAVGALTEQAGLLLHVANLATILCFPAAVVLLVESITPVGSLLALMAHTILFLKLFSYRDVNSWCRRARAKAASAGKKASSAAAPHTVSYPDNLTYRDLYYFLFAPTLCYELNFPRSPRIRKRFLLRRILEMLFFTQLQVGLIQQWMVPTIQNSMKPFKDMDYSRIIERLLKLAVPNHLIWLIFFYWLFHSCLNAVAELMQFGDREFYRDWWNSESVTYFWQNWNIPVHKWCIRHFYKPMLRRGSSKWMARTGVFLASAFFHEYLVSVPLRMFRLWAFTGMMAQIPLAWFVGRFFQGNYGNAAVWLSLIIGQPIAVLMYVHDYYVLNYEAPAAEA
In words: DGAT1 inhibitory activity test. The class given is biochemical. As to conditions: test compound concentration of 0.05 μg/ml; [14C]-oleoyl-CoA, 23° C., 30 minutes; read-out: Inhibitory Rate. The procedure: (1) Preparation of DGAT1 Enzyme
DGAT1 enzyme was prepared and stored according to the method described in US2007/0249620.
(2) DGAT1 Inhibitory Activity Test
A reaction solution having the following composition was incubated at room temperature (23° C.) for 30 minutes: 175 mM Tris-HCl (pH 8.0), 8 mM MgCl2, 1 mg/ml BSA, 0.3 mM 1,2-dioleoyl-sn-glycerol (10-fold concentration of EtOH solution, 10% added), 10 μM [^14C]-oleoyl-CoA (approximately 50 mCi/mmol), 0.5% Triton X-100, the DGAT1 enzyme (10 μg) obtained in Test Example 1(1), and a test compound or vehicle (DMSO/MeOH, 7:3 solution, 5% added), 50 μl in total. A reaction stop solution […] consisting of isopropanol/1-heptane/water (80:20:2, v/v/v) was added to the reaction solution and stirred. Subsequently, water […] and 1-heptane (100 μl) were added thereto and stirred. The 1-heptane layer […] was spotted onto a TLC plate and developed with a developing solvent consisting of 1-hexane/diethyl ether/acetic acid (85:15:1, v/v/v). The radioactivity of the triglyceride fraction was quantified using BAS2500 Bio Image Analyzer (FUJIFILM) and compared with the control. The inhibitory activity of the test compound was calculated according to the formula shown below. In this context, the radioactivity at no reaction (0 minute incubation) was used as background.
Inhibitory Rate=100−[(Radioactivity of sample supplemented with test compound)−(Background)]/[(Radioactivity of control)−(Background)]×100

The next assay deals with C57BL/6N mice. In words: Feeding suppressant activity on a high-fat diet. As to conditions: male C57BL/6N mice, oral dose of 3 mg/kg; food intake 6 hours after initiation of high-fat diet feeding. The assay is classed as in vivo. The procedure:
Male C57BL/6N mice (7-12 weeks old, body weight: 17-25 g, Charles River Laboratories Japan Inc.) were individually housed and fed on a high-fat diet (fat content: 45 kcal %: Research Diets, Inc. D12451) for 1 week or longer for acclimatization. Based on the food intake during the period, the animals were equally assigned to experimental groups and fasted overnight. Then, a vehicle (0.5% methylcellulose) or each test compound (1 to 10 mg/kg) suspended in vehicle was orally administered (10 mL/kg) to each group. 30 minutes after administration, the animals were fed on a high-fat diet, and the food intake was measured 6 hours after initiation of feeding. The feeding suppressant activity of each test compound was calculated based on the equation shown below.
Feeding suppressant activity(%)=[(Food intake of Vehicle group)−(Food intake of each test compound group)]/[(Food intake of Vehicle group)]×100

For `O=C(O)C[C@H]1CC[C@H](OC(=O)N2CCc3cc(NC(=O)Nc4ccccc4Cl)ccc3C2)CC1` [Example 2, trans-6-[3-(2-chloro-phenyl)-ureido]-3,4-dihydro-1H-isoquinoline-2-carboxylic acid 4-carboxymethyl-cyclohexyl ester], on DGAT1 enzyme, the inhibition at 0.05 µg/mL is not below 50%. In the assay with C57BL/6N mice, this compound yielded a Feeding suppressant activity of 70%.
